US6355799B1, “Substituted benzene compounds, process for their preparation, and herbicidal and defoliant compositions containing them” (ISK Americas Incorporated, priority 1997, dated 2002)

Columns and labels:
Format in all cases: in vivo
[1] = system: redroot pigweed (Amaranthus retroflexus, AMARE); assay: Pre-emerge test, greenhouse herbicide activity screening; details: rating scale 0-100, 14 days after application
How it was run: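 Plants grown in 10 cm pots of sandy loam mix received acetone-dissolved compounds through a moving flat-fan nozzle. Doses ranged from 15 to 1000 g ai/ha. Pre-emerge pots were seeded one day earlier, post-emerge pots 8–21 days earlier. Fourteen days on, each pot was graded 0–100 for damage.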

[2] = system: barnyardgrass (Echinochloa crus-galli, ECHCG); assay: as above; details: rating scale 0-100, 14 days after application
How it was run: (§1)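 Applied at 15–1000 g ai/ha from acetone in 187 l/ha spray volume. Post-emergence applications included 0.25% v/v non-ionic surfactant and reached plants sown 8–21 days before. Pre-emergence applications were incorporated by surface watering. Efficacy or crop damage was rated on a 0–100 scale after 14 days.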

[3] = system: green foxtail (Setaria viridis, SETVI); assay: as above; details: rating scale 0-100, 14 days after application
How it was run: as §1

[4] = system: ivyleaf morningglory (Ipomoea hederacea, IPOHE); assay: as above; details: rating scale 0-100, 14 days after application
How it was run: as §1

[5] = system: johnsongrass (Sorghum halepense, SORHA); assay: as above; details: rating scale 0-100, 14 days after application
How it was run: as §1

[6] = system: lambsquarters (Chenopodium album, CHEAL); assay: as above; details: rating scale 0-100, 14 days after application
How it was run: as §1

[7] = system: large crabgrass (Digitaria sanguinalis, DIGSA); assay: as above; details: rating scale 0-100, 14 days after application
How it was run: as §1

[8] = system: sicklepod (Cassia obtusifolia, CASOB); assay: as above; details: rating scale 0-100, 14 days after application
How it was run: as §1

[9] = system: velvetleaf (Abutilon theophrasti, ABUTH); assay: as above; details: rating scale 0-100, 14 days after application
How it was run: as §1

[10] = system: field corn (Zea mays L., var. Dekalb 535, CORN); assay: Pre-emerge test, crop safety; details: 63 g ai/ha; rating scale 0-100, 14 days after application
How it was run: as §1

[11] = system: upland rice (Oryza sp., var. Tebonnet, RICE); assay: Pre-emerge test, crop safety; details: rating scale 0-100, 14 days after application
How it was run: as §1

[12] = system: barnyardgrass (Echinochloa crus-galli, ECHCG); assay: Post-emerge test, greenhouse herbicide activity screening; details: rating scale 0-100 (0 no damage, 100 complete death), 14 days after application
How it was run: (§2)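 Fourteen days after spraying, crop and weed injury was graded visually from 0, no effect, to 100, every plant dead. Test substances were dissolved in acetone and applied at 15–1000 g ai/ha with a flat-fan nozzle. Application was either pre-emergence, one day after sowing, or post-emergence at the 2–3 leaf stage.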

[13] = system: common ragweed (Ambrosia artemisizfolia L., AMBEL); assay: as above; details: rating scale 0-100 (0 no damage, 100 complete death), 14 days after application
How it was run: as §2

[14] = system: green foxtail (Setaria viridis, SETVI); assay: as above; details: rating scale 0-100 (0 no damage, 100 complete death), 14 days after application
How it was run: as §2

[15] = system: ivyleaf morningglory (Ipomoea hederacea, IPOHE); assay: as above; details: rating scale 0-100 (0 no damage, 100 complete death), 14 days after application
How it was run: as §2

[16] = system: johnsongrass (Sorghum halepense, SORHA); assay: as above; details: rating scale 0-100 (0 no damage, 100 complete death), 14 days after application
How it was run: as §2

[17] = system: lambsquarters (Chenopodium album, CHEAL); assay: as above; details: rating scale 0-100 (0 no damage, 100 complete death), 14 days after application
How it was run: as §2

[18] = system: large crabgrass (Digitaria sanguinalis, DIGSA); assay: as above; details: rating scale 0-100 (0 no damage, 100 complete death), 14 days after application
How it was run: as §2

[19] = system: redroot pigweed (Amaranthus retroflexus, AMARE); assay: as above; details: rating scale 0-100 (0 no damage, 100 complete death), 14 days after application
How it was run: as §2

[20] = system: sicklepod (Cassia obtusifolia, CASOB); assay: as above; details: rating scale 0-100 (0 no damage, 100 complete death), 14 days after application
How it was run: as §2

[21] = system: velvetleaf (Abutilon theophrasti, ABUTH); assay: as above; details: rating scale 0-100 (0 no damage, 100 complete death), 14 days after application
How it was run: as §2

[22] = system: field corn (Zea mays L., var. Dekalb 535, CORN); assay: Post-emerge test, crop safety; details: rating scale 0-100 (0 no damage, 100 complete death), 14 days after application
How it was run: as §1

[23] = system: upland rice (Oryza sp., var. Tebonnet, RICE); assay: Post-emerge test, crop safety; details: rating scale 0-100 (0 no damage, 100 complete death), 14 days after application
How it was run: as §1

In the case of `COCCOC(=O)C(Cl)Cc1c(OC)c(Cl)cc(F)c1-n1c(=O)cc(C(F)(F)F)n(C)c1=O` (stereo not drawn) [14-25], the “Pre-emerge herbicidal activity, phytotoxicity rating AMARE” value ([1]; 63 g ai/ha) was 100, the “Pre-emerge herbicidal activity, phytotoxicity rating AMARE” value ([1]; 250 g ai/ha) was 100 and the “Pre-emerge herbicidal activity, phytotoxicity rating ECHCG” value ([2]; 63 g ai/ha) was 80. The “Pre-emerge herbicidal activity, phytotoxicity rating ECHCG” value ([2]; 250 g ai/ha) was 100, the “Pre-emerge herbicidal activity, phytotoxicity rating SETVI” value ([3]; 63 g ai/ha) was 90 and the “Pre-emerge herbicidal activity, phytotoxicity rating SETVI” value ([3]; 250 g ai/ha) was 100. For the same molecule, the “Pre-emerge herbicidal activity, phytotoxicity rating IPOHE” value ([4]; 63 g ai/ha) was 70, the “Pre-emerge herbicidal activity, phytotoxicity rating IPOHE” value ([4]; 250 g ai/ha) was 100 and the “Pre-emerge herbicidal activity, phytotoxicity rating SORHA” value ([5]; 63 g ai/ha) was 80. For the same molecule, the “Pre-emerge herbicidal activity, phytotoxicity rating SORHA” value ([5]; 250 g ai/ha) was 100, the “Pre-emerge herbicidal activity, phytotoxicity rating CHEAL” value ([6]; 63 g ai/ha) was 100 and the “Pre-emerge herbicidal activity, phytotoxicity rating CHEAL” value ([6]; 250 g ai/ha) was 100. For the same molecule, the “Pre-emerge herbicidal activity, phytotoxicity rating DIGSA” value ([7]; 63 g ai/ha) was 70, the “Pre-emerge herbicidal activity, phytotoxicity rating DIGSA” value ([7]; 250 g ai/ha) was 100 and the “Pre-emerge herbicidal activity, phytotoxicity rating CASOB” value ([8]; 63 g ai/ha) was 50. For the same molecule, the “Pre-emerge herbicidal activity, phytotoxicity rating CASOB” value ([8]; 250 g ai/ha) was 100, the “Pre-emerge herbicidal activity, phytotoxicity rating ABUTH” value ([9]; 63 g ai/ha) was 100 and the “Pre-emerge herbicidal activity, phytotoxicity rating ABUTH” value ([9]; 250 g ai/ha) was 100. The “Pre-emerge phytotoxicity rating, crop damage CORN” value [10] was 95, the “Pre-emerge phytotoxicity rating, crop damage RICE” value ([11]; 63 g ai/ha) was 90 and the “Pre-emerge phytotoxicity rating, crop damage RICE” value ([11]; 250 g ai/ha) was 100. For the same molecule, the “Post-emerge Herbicidal Activity, phytotoxicity rating ECHCG” value ([12]; Rate 63 g ai/ha) was 100, the “Post-emerge Herbicidal Activity, phytotoxicity rating ECHCG” value ([12]; Rate 250 g ai/ha) was 100 and the “Post-emerge Herbicidal Activity, phytotoxicity rating AMBEL” value ([13]; Rate 63 g ai/ha) was 100. The “Post-emerge Herbicidal Activity, phytotoxicity rating AMBEL” value ([13]; Rate 250 g ai/ha) was 100, the “Post-emerge Herbicidal Activity, phytotoxicity rating SETVI” value ([14]; Rate 63 g ai/ha) was 50 and the “Post-emerge Herbicidal Activity, phytotoxicity rating SETVI” value ([14]; Rate 250 g ai/ha) was 80. The “Post-emerge Herbicidal Activity, phytotoxicity rating IPOHE” value ([15]; Rate 63 g ai/ha) was 70, the “Post-emerge Herbicidal Activity, phytotoxicity rating IPOHE” value ([15]; Rate 250 g ai/ha) was 100 and the “Post-emerge Herbicidal Activity, phytotoxicity rating SORHA” value ([16]; Rate 63 g ai/ha) was 40. The “Post-emerge Herbicidal Activity, phytotoxicity rating SORHA” value ([16]; Rate 250 g ai/ha) was 95, the “Post-emerge Herbicidal Activity, phytotoxicity rating CHEAL” value ([17]; Rate 63 g ai/ha) was 80 and the “Post-emerge Herbicidal Activity, phytotoxicity rating CHEAL” value ([17]; Rate 250 g ai/ha) was 100. The “Post-emerge Herbicidal Activity, phytotoxicity rating DIGSA” value ([18]; Rate 63 g ai/ha) was 95, the “Post-emerge Herbicidal Activity, phytotoxicity rating DIGSA” value ([18]; Rate 250 g ai/ha) was 100 and the “Post-emerge Herbicidal Activity, phytotoxicity rating AMARE” value ([19]; Rate 63 g ai/ha) was 95. The “Post-emerge Herbicidal Activity, phytotoxicity rating AMARE” value ([19]; Rate 250 g ai/ha) was 100, the “Post-emerge Herbicidal Activity, phytotoxicity rating CASOB” value ([20]; Rate 63 g ai/ha) was 50 and the “Post-emerge Herbicidal Activity, phytotoxicity rating CASOB” value ([20]; Rate 250 g ai/ha) was 80. The “Post-emerge Herbicidal Activity, phytotoxicity rating ABUTH” value ([21]; Rate 63 g ai/ha) was 100, the “Post-emerge Herbicidal Activity, phytotoxicity rating ABUTH” value ([21]; Rate 250 g ai/ha) was 100 and the “Post-emerge phytotoxicity rating CORN (crop damage)” value ([22]; Rate 63 g ai/ha) was 100. The “Post-emerge phytotoxicity rating CORN (crop damage)” value ([22]; Rate 250 g ai/ha) was 100, the “Post-emerge phytotoxicity rating RICE (crop damage)” value ([23]; Rate 63 g ai/ha) was 10 and the “Post-emerge phytotoxicity rating RICE (crop damage)” value ([23]; Rate 250 g ai/ha) was 50.
